Results as given in ChEMBL document CHEMBL1201862, “PubChem BioAssay data set” (2004).
Each block holds one compound with its values, some of them ahead of it. Activity calls are given as the source filed them.

Experiments:
[1] = target: Cytochrome P450 2D6 (Homo sapiens, UniProt P10635); assay: qHTS Assay for Inhibitors and Substrates of Cytochrome P450 2D6. [Related pubchem assays: 410 ]; type: ADME; settings: read-out: Potency
[2] = test system: INS1; assay: INS-1E survival protection against cytokine death – cell-based, luminescence, retest, dose response (AID 449756); type: functional; settings: Rattus norvegicus;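 note: cell death triggered by IL-1 beta plus TNF-alpha plus IFN-gamma mixture; protective hits raise ATP signal compared with cytokine alone wells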
[3] = target: Serine/threonine-protein phosphatase PP1-alpha catalytic subunit (Homo sapiens, UniProt P62136); assay: inhibition of protein phosphatase 1 activity – biochemical, fluorescence, dose response (AID 2403);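 note: phosphatase turnover of OMFP into fluorescent 3-O-methylfluorescein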
Sequence of Serine/threonine-protein phosphatase PP1-alpha catalytic subunit (P62136 whole entry): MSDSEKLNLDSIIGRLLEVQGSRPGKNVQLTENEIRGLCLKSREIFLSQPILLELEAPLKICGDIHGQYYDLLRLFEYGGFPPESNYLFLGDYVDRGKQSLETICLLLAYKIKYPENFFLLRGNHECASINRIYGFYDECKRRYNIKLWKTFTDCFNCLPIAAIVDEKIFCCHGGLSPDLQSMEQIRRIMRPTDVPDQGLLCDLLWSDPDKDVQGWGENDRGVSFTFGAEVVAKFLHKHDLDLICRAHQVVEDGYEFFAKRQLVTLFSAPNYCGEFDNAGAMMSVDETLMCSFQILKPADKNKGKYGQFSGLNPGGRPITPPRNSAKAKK

[4] = target: T1, Serine/threonine-protein phosphatase (Homo sapiens, UniProt Q9BPW0); assay: Counterscreen for inhibitors of PP1: fluorescence-based biochemical high throughput dose response assay to identify inhibitors of Protein Phosphatase 5 (PP5). [Related pubchem assays: 2034 (Summary (PP5 inhibitors)), 1987 (PP5 inhibitors in singlate), 2235 (PP1 inhibitors in singlate)]
T1 sequence (Q9BPW0 whole entry): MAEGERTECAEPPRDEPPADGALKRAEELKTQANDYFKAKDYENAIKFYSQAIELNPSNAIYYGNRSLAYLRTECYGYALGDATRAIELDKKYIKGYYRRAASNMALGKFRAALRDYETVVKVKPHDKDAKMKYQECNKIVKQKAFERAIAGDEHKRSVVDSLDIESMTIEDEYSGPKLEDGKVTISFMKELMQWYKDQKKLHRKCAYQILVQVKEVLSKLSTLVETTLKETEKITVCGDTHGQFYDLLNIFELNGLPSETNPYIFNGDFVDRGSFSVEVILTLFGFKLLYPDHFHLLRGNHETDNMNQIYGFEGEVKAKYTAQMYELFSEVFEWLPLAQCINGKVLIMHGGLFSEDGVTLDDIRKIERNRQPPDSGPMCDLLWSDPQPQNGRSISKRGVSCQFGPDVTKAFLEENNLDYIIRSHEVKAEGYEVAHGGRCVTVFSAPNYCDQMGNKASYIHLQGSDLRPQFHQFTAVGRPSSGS

[5] = loss of viability in HepG2 cells – cell-based, CellTiter-Glo, cherry-picked, cytotoxicity control for Shn3 inhibitor project, dose response (AID 624134); type: functional
[6] = MIN6 cell viability loss – mouse insulinoma, cytotoxicity control, dose response (AID 2122); type: functional;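 note: confirmatory high-throughput counterscreen run to flag cytotoxic compounds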
[7] = target: Paired box protein Pax-8 (Homo sapiens, UniProt Q06710); assay: PAX8 transcriptional activity inhibition in RMG-I – RMG-I cells, luciferase, cherry-pick, dose response (AID 687027); type: functional, cell-based;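 note: luciferase reporter driven by Pax8 target thyroperoxidase promoter measured by SteadyGlo luminescence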
Sequence of Paired box protein Pax-8 (Q06710 whole entry): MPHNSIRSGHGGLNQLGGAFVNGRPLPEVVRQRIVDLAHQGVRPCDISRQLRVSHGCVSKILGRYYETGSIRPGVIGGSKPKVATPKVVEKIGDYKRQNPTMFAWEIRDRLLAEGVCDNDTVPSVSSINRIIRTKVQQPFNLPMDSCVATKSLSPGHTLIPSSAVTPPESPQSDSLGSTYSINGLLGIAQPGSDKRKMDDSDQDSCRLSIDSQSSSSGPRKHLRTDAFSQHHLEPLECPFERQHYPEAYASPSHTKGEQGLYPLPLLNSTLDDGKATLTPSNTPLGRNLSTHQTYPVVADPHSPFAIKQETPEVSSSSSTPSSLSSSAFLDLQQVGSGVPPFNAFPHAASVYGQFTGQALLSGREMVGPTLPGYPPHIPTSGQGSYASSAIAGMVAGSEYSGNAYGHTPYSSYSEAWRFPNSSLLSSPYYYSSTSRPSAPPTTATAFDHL

[8] = target: Scavenger receptor class B member 1 (Mus musculus, UniProt Q61009); assay: mouse SR-BI DiI-HDL uptake blockers – ldlA[mSR-BI] cells, fluorescence, cherry pick, dose response (AID 493194); type: functional, cell-based;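 note: cellular uptake of fluorescent DiI-labeled HDL measured as cell fluorescence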
Sequence of Scavenger receptor class B member 1 (Q61009 whole entry): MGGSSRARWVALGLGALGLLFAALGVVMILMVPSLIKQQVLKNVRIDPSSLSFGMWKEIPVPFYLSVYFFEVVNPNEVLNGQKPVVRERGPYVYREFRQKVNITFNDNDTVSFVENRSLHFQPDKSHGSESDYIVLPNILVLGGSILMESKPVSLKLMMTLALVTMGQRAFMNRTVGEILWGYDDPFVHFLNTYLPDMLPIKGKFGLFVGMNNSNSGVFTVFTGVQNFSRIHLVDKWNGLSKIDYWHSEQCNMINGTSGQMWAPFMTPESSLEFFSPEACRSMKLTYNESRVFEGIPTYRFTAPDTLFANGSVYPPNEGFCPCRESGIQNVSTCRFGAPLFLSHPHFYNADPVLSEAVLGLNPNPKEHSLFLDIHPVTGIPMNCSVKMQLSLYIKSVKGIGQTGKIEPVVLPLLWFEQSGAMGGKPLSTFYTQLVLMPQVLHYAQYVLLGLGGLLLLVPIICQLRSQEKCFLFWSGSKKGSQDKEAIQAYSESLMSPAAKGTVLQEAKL

[9] = reduction of Shn3 3'UTR-driven luciferase in osteoblasts – cell-based, Clone20 osteoblasts, firefly luciferase, cherry-picked, dose response (AID 624132); type: functional;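 note: firefly luciferase luminescence from reporter carrying the Shn3 3'UTR in osteoblasts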
[10] = decrease of insulin promoter-GFP reporter – imaging, high-content screening, mouse beta cells (AID 1628); type: functional; settings: MIN6
[11] = target: T2, Insulin-degrading enzyme (Homo sapiens, UniProt P14735); assay: Dose Response: Fluorescence polarization-based cell-based high throughput dose response assay for inhibitors of insulin-degrading enzyme (IDE). [Related pubchem assays: 434962 (Primary screen (IDE inhibitors in singlicate)), 449730 (Counterscreen (Cytotoxicity in triplicate)), 435028 (Confirmation (IDE inhibitors in triplicate)), 434984 (Summary …; type: functional
T2 sequence (P14735 whole entry): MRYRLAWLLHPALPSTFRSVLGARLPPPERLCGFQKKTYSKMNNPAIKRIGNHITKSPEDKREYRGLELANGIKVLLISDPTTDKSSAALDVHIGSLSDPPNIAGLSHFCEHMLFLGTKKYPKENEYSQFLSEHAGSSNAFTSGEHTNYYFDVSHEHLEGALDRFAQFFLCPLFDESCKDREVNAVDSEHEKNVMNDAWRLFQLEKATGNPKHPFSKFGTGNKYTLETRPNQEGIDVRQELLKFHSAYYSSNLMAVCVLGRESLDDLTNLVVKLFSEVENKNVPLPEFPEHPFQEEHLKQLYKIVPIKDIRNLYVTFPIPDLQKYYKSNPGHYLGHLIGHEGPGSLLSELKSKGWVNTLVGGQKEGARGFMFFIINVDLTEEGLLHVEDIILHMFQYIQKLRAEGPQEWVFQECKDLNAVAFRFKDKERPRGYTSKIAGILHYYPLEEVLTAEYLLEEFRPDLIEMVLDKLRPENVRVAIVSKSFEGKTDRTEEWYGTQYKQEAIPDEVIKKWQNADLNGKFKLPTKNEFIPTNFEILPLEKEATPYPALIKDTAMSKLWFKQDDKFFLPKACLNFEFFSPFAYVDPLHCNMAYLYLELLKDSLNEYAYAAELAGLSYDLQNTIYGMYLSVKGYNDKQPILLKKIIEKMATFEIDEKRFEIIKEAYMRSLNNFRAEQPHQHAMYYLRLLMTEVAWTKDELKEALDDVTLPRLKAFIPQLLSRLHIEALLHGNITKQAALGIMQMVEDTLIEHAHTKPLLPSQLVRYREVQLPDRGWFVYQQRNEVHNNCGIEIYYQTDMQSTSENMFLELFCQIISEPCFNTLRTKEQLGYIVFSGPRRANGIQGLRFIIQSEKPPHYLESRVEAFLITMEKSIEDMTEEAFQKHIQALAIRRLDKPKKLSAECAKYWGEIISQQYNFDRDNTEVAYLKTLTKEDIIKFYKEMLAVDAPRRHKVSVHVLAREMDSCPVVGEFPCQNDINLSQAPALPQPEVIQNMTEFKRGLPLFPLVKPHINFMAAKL

[12] = Counterscreen for IDE inhibitors: Luminescence-based cell-based high throughput dose response assay to identify compounds that are cytotoxic to HEK cells. [Related pubchem assays: 434962 (Primary screen (IDE inhibitors in singlicate)), 449730 (Counterscreen (Cytotoxicity in triplicate)), 435028 (Confirmation (IDE inhibitors in triplicate)) …; type: functional; settings: HEK293
[13] = target: Aspartyl aminopeptidase (Plasmodium falciparum 3D7, UniProt Q8I2J3)
Sequence of Aspartyl aminopeptidase (Q8I2J3 whole entry): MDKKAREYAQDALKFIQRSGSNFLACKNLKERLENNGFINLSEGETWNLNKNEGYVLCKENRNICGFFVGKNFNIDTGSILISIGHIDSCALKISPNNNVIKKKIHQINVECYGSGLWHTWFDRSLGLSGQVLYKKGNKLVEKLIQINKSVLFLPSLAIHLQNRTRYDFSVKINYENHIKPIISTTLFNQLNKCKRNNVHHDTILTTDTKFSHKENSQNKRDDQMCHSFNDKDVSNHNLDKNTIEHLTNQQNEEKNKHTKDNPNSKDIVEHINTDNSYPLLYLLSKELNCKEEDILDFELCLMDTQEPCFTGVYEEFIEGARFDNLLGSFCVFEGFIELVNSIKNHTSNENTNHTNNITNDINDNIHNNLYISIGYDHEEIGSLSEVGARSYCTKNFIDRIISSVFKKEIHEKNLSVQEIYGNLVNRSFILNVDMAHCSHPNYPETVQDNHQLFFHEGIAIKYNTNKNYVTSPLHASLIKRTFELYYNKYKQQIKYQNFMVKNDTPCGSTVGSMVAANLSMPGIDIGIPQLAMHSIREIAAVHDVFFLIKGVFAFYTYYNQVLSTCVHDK

[14] = target: Procathepsin L (Homo sapiens, UniProt P07711)
Sequence of Procathepsin L (P07711 whole entry): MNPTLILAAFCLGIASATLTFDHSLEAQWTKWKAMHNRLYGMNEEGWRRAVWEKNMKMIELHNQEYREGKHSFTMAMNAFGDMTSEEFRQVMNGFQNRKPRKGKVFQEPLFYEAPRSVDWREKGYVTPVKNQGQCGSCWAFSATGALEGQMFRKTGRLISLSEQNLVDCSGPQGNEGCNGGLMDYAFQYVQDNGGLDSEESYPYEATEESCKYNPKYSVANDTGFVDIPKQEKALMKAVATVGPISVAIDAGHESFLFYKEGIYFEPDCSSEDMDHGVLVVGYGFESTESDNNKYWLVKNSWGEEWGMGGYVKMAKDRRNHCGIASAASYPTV

[15] = target: C-C chemokine receptor type 6 (Homo sapiens, UniProt P51684); assay: antagonism of CCR6 beta-arrestin recruitment – cell-based, luminescent beta-arrestin readout, dose response (AID 504728); type: functional
Sequence of C-C chemokine receptor type 6 (P51684 whole entry): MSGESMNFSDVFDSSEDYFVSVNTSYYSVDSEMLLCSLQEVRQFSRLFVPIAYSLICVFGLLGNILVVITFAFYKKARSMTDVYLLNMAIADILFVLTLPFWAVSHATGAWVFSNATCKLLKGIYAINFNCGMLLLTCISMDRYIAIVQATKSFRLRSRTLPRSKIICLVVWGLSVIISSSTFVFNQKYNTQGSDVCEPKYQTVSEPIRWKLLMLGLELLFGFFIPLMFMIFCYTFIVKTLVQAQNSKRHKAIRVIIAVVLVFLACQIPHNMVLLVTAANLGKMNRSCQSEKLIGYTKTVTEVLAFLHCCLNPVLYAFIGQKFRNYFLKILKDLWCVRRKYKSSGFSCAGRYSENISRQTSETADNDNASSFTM

[16] = target: Beta-galactosidase (Escherichia coli, UniProt Q8VNN2); assay: detection-enzyme interference by beta-gal modulators – biochemical, E. coli enzyme, set 3, artefact control for CCR6 antagonist project, dose response (AID 504712); type: functional
Sequence of Beta-galactosidase (Q8VNN2 whole entry): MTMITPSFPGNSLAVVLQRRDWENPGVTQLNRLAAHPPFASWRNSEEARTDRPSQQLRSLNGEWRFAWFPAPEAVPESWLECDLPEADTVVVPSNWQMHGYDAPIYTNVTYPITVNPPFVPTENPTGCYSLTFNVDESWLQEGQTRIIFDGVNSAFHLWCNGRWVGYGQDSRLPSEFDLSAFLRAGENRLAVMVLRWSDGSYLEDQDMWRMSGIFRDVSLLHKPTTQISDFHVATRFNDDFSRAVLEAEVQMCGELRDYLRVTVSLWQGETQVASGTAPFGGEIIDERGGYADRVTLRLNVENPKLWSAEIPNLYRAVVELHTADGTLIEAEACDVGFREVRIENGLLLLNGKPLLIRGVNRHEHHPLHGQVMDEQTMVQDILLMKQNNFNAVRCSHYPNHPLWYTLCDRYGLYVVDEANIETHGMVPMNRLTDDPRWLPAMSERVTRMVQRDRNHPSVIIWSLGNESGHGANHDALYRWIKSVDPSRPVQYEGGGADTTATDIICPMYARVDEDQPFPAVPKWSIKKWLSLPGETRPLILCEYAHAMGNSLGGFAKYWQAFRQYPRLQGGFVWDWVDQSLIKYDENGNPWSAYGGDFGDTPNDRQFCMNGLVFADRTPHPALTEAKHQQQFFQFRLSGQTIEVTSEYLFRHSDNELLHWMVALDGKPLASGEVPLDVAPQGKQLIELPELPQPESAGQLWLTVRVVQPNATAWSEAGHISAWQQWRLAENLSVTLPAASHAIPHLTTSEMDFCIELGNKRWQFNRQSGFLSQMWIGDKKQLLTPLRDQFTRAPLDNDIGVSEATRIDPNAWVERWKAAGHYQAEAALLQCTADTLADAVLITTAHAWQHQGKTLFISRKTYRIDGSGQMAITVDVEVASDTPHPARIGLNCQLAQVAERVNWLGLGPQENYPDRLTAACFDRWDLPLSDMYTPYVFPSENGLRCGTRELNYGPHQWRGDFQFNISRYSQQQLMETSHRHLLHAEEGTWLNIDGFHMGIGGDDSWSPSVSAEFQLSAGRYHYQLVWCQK

[17] = target: Cytochrome P450 2C9 (Homo sapiens, UniProt P11712); settings: Potency
Sequence of Cytochrome P450 2C9 (P11712 whole entry): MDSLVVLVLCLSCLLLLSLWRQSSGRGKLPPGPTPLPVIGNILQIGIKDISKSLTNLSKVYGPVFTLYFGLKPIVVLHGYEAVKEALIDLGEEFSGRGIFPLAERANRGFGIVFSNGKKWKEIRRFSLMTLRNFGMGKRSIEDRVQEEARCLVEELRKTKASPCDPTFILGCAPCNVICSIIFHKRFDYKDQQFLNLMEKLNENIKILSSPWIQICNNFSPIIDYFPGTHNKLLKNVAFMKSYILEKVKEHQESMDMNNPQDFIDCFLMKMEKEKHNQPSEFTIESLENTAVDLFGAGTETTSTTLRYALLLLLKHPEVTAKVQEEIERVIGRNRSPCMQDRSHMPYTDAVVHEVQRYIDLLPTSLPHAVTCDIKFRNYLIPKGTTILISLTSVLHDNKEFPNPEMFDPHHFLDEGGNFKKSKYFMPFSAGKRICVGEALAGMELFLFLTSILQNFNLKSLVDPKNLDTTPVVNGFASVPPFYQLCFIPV

[18] = target: Aminopeptidase N (Plasmodium falciparum FcB1/Columbia, UniProt O96935); assay: malaria alanyl aminopeptidase activity blockers – biochemical, fluorogenic H-Leu-NHMec substrate, 1536-well (AID 1445); set-up: species or system Plasmodium falciparum 3D7, 3D7

Sequence of Cytochrome P450 2D6 (P10635 whole entry): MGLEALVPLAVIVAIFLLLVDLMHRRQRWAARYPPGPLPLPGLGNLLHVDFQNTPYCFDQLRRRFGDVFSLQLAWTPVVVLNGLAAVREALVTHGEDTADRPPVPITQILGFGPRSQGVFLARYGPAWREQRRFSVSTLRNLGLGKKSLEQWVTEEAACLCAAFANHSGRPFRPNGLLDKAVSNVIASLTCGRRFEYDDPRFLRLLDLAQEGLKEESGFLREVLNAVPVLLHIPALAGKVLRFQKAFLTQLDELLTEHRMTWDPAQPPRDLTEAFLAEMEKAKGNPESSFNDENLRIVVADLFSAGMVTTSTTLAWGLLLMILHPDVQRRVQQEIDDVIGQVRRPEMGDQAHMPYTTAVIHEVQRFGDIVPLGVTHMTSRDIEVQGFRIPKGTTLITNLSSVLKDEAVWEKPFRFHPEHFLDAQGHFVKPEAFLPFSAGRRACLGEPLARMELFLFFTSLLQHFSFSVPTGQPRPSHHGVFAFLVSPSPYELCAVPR

AC50 [1]: 6.31 µM (inconclusive)
SMILES: CC(=O)OCC1OC(C#Cc2ccc(F)cc2F)C=CC1OC(C)=O (stereo not given)

SMILES: COc1cnc(-c2ccccn2)nc1Sc1ccc(C)cc1
AC50 [2]: 5.03 µM (active)
IC50 [3]: 6.95 µM (active)
IC50 [4]: > 67 µM (not active)

SMILES: O=C(Nc1ccc(Cl)cc1)Nc1ccc(N2CCCC2)c(S(=O)(=O)Nc2ccccc2Cl)c1
AC50 [5]: 7.06 µM (active)
AC50 [2]: 6.99 µM (active)
IC50 [6]: > 16 µM (inactive)
AC50 [7]: 5.13 µM (active)
AC50 [8]: 23.5 µM (active)
AC50 [9]: 5.2 µM (active)
IC50 [10]: 4.47 µM (active)

SMILES: Cc1c(OC(C)C(=O)NCc2ccncc2)ccc2c3c(c(=O)oc12)CCCC3 (stereo not given)
IC50 [11]: > 55.9 µM (not active)
IC50 [12]: 15.5 µM (not active)

IC50 [13]: 0.864 µM (active)
IC50 [14]: > 59.6 µM (not active)
SMILES: CC1=C([N+](=O)[O-])C(c2ccc(O)c(O)c2)NC(=O)N1 (stereo not given)

IC50 [15]: 50.4 µM (inactive)
IC50 [16]: > 66.6 µM (inactive)
SMILES: C/C(CCC12CC3CC(CC(C3)C1)C2)=N\NC(N)=S

SMILES: COc1ccc2c(c1OC)C(=O)O[C@@H]2[C@H]1c2cc3c(cc2CCN1C)OCO3 [HYDRASTINE]
AC50 [17]: 25.1 µM (inconclusive)
AC50 [1]: 39.8 µM (inconclusive)

SMILES: C[C@H](CCC(=O)O)[C@H]1CC[C@H]2[C@@H]3[C@@H](O)C[C@@H]4C[C@H](O)CC[C@]4(C)[C@H]3CC[C@]12C [URSODIOL]
IC50 [18]: 2.6 µM (active)
